Experimental data as given in ChEMBL document CHEMBL3507680, “University of Dundee, Gates Library screen for HepG2 cell viability”.

Assay: Human HepG2 cell viability assay in 384 well format
Type: toxicity, cell-based
Parameters: dose 125 nL, time 70.5 hour; cytotoxicity at 70.5 h: concentration not given beside the values
Conditions: HepG2 cells, read-out: Inhibition

SMILES	cytotoxicity at 70.5 h
CC(C)Oc1ncc(C(=O)N2CCc3ccc(O)cc3C2)cc1Cl	15.8%
CCCc1nnsc1C(=O)NCC(O)c1ccoc1 (configuration not stated)	-11.2%
CCc1ccc(C(=O)N2CCCC(CNS(C)(=O)=O)C2)o1 (configuration not stated)	-10.7%
O=C(c1ccc(-c2ccoc2)nc1)N1CCCN(C2CCCCC2)CC1	-12.9%
CNS(=O)(=O)c1cccc(C(C)NCc2ccco2)c1 (configuration not stated)	-8.45%
COc1ccccc1OC1CCN(Cc2ccc(N(C)C)nc2)CC1	-6.85%
Cc1ccc(-c2nnc(CN3CC(n4cc(C)cn4)C3)o2)cc1	-13.9%
COc1ncccc1CNC(=O)c1cc(F)cc(Br)c1	-2.19%
CSc1ccc(CN(CCO)C(=O)CCOc2ccccc2)cc1	-7.56%
Cc1ncc2c(n1)CN(CCOCC(F)(F)F)CC2	-4.14%
CC1CN(CC(=O)Nc2nncs2)CCN1c1nccs1 (configuration not stated)	-9.27%
Cn1cc(C2CCCN2CC(=O)N(CCC#N)Cc2ccco2)cn1 (configuration not stated)	2%
CC(C)(C)c1cn2nc(N3CCCC3Cn3cccn3)sc2n1 (configuration not stated)	0.173%
O=C(COCc1ccccc1)N1CCCC(n2cncn2)C1 (configuration not stated)	-20.7%
CCc1ccccc1OC1CN(CC2CCOC2)C1 (configuration not stated)	29.4%
CCOc1ccc(N(C)Cc2nc(C)c(C)o2)cc1	15.3%
C=C(C)CN(CC)C(=O)Nc1ccccc1CN(C)C(C)=O	-12.6%
CCN(CC1CN(Cc2ncc(C)o2)CCO1)c1cccnn1 (configuration not stated)	-2.43%
NC(=O)C1CCN(C(=O)c2cccn2Cc2cccs2)CC1	-4.99%
CCCS(=O)(=O)N1C[C@@H](Oc2ccccn2)[C@H]2OCCC[C@H]21	-1.57%
CCC(=O)N1CCN(C(=O)Nc2cccc(F)c2)[C@H]2CS(=O)(=O)C[C@H]21	-2.91%
CC(=O)N1CCCC2(CCC(=O)N2Cc2cccnc2)C1 (configuration not stated)	30.1%
Cc1cnc(NC(C)Cc2cccnc2)nc1N(C)C (configuration not stated)	0.166%
Cc1nc(C)c(CN2CCOC(CNc3cccnn3)C2)s1 (configuration not stated)	-5.6%

SMILES	cytotoxicity at 70.5 h
CN(CC(O)C(F)(F)F)C(=O)Nc1cccc(N2CCCC2)c1 (configuration not stated)	-3.73%
Cc1nc(C2CCCN2CC(=O)N(Cc2ccsc2)C2CC2)no1 (configuration not stated)	-5.17%
CNC(=O)C1CCN(S(C)(=O)=O)CC1	-10.2%
Cc1ccc(CN2CCn3c(C(=O)N(C)C)cnc3C2)cc1	2.94%
CC(SCCS(C)(=O)=O)c1nc(Cc2ccc(F)cc2)no1 (configuration not stated)	-0.925%
O=C(O)C1(n2ccc(-c3ccco3)n2)CCN(Cc2ccccn2)CC1	-4.75%
CC(NC(N)=O)C(=O)NCc1ccnc(Oc2ccc(F)cc2)c1 (configuration not stated)	-0.577%
CC(Cn1cccn1)NC(=O)N(C)Cc1ccc(C(N)=O)cc1 (configuration not stated)	37.9%
CCc1cnc(N2CCC(=O)N(CC3CC3)C(C(C)C)C2)nc1 (configuration not stated)	8.36%
c1cnc(N2CCO[C@H]3CN(Cc4csnn4)C[C@H]32)nc1	-11.7%
CN(Cc1noc2c1CCCC2)C(=O)Nc1cncc(F)c1	-7.85%
NC(=O)c1nnn(-c2ccc(Cl)cc2)n1	-5.31%
COCCCNC(=O)CN(C)C1CCCN(c2cccnn2)C1 (configuration not stated)	-6.82%
CC(=O)N1CCCC1C(=O)NCCOc1c(C)cccc1C (configuration not stated)	-1.77%
CN(Cc1cnccn1)c1cncc(Br)c1	-22%
CCCc1n[nH]c(C2CN(C(=O)c3cc(C4CC4)on3)CCO2)n1 (configuration not stated)	-10.9%
Cc1cc(C(=O)N(C)S(=O)(=O)C(C)C)ccc1F	-4.29%
c1cc2cc[nH]c2c(CC2CN(Cc3cncs3)C2)n1	7.7%
O=C(NCCC1=CCCCC1)Nc1cc(C(F)(F)F)c[nH]c1=O	0.799%
O=C(Cc1ccsc1)N1CCC(c2ccncc2)CC1	-13.6%
CC1CCCCN1C1CN(C(=O)c2sccc2S(N)(=O)=O)C1 (configuration not stated)	-2.85%
COc1ccc(OCCN(C)CCCn2cnc3c(N)ncnc32)cc1	-5.85%
O=C1CC2(CCN(Cc3ccoc3)C2)CN1c1cncnc1 (configuration not stated)	-4.55%
